Earlier results on 6 compounds are cited in patent US11198731B2 (Exelixis, Inc., priority 2017, dated 2021).

Where two headings read alike, the source gives them in different places.

Data set [1] relates to advanced RCC after prior VEGFR-TKI. To be noted: cited from earlier work.
In a further data set the test system is advanced NSCLC. To be noted: cited from earlier work.
The test system of data set [2] is locally advanced or metastatic UC. To be noted: cited from earlier work.
The test system of data set [3] is advanced RCC of clear cell or non-clear cell histology. The note with it: cited from earlier work.
Data set [4] relates to locally advanced or metastatic UC. The note with it: cited from earlier work. This is another data set of the same source.
Data set [5] has as its system platinum-pretreated NSCLC. To be noted: cited from earlier work; for OS hazard ratio: vs docetaxel.
The next data set relates to cisplatin-ineligible UC. The note with it: cited from earlier work.
Data set [6] has as its system advanced CRPC with bone metastases. The note with it: cited from earlier work.
Data set [7] has as its system previously-untreated advanced RCC of intermediate- or poor-risk. The note with it: cited from earlier work.
Data set [8] has as its system NSCLC without EGFR genetic alterations. To be noted: cited from earlier work.
Setting [9] is: subjects with ≥5% PD-L1 expression.
Where [10] appears, read: PD-L1 positive population (2 1% PD-L1 expression).

For `CO[C@H]1C[C@@H]2CC[C@@H](C)[C@@](O)(O2)C(=O)C(=O)N2CCCC[C@H]2C(=O)O[C@H]([C@H](C)C[C@@H]2CC[C@@H](OCCO)[C@H](OC)C2)CC(=O)[C@H](C)/C=C(\C)[C@@H](O)[C@@H](OC)C(=O)[C@H](C)C[C@H](C)/C=C/C=C/C=C/1C` [everolimus], the “ORR per IRC” value in data set [1] (ITT population) is given as 3%. In [1] (Primary Endpoint Intent-to-Treat population), the “Median duration of PFS (Kaplan-Meier)” value is given as 3.8 months. For the same compound, in data set [1] (in vivo), the “Median duration of OS (Kaplan-Meier)” value is 16.5 months. In addition, the “Treatment discontinuations due to AEs” value in data set [1] (incidence in each arm) was 10%.
With “atezolizumab: humanized immunoglobulin (Ig) G1 monoclonal antibody that targets programmed death receptor 1 ligand (PD-L1)”, in the data set on advanced NSCLC (PD-L1 high group), the “Median OS” value was 26.9 months, the “Median PFS” value is recorded as 5.4 months and the “Median duration of response” value is reported as ~10 months. In addition, in the data set on advanced NSCLC (in vivo), the “AE leading to discontinuation: Grade 3 or 4 pneumonitis” value is given as 1%, the “AE leading to discontinuation: any grade pneumonia” value is 1%, the “Adverse events leading to treatment discontinuation” value is on record as 7% and the “Treatment-related AEs of Grade 3 or 4” value is listed as 9%. For the same compound, the “Treatment-related Grade 5 event” value in the data set on advanced NSCLC (in vivo) is given as “no treatment-related Grade 5 event”. Also, the OS in the data set with advanced NSCLC (unselected untreated NSCLC subjects) is 23.5 months. In data set [2] (overall population), the “Duration of response (DOR)” value is recorded as 21.7 months and the “Overall ORR” value is recorded as 13%. Also, in [2] (overall population, vs chemotherapy), the OS hazard ratio is reported as 0.85. Moreover, the ORR in data set [2] (setting [9]) was 23.0%. Moreover, in data set [3] (clear cell RCC), the “Median OS” value is 28.9 months and the “Overall median PFS” value was 5.6 months. Moreover, in [3] (in vivo), the “Grade 4 or 5 treatment-related AEs” value is given as “no Grade 4 or 5 treatment-related AEs” and the “Treatment-related Grade 3 events” value is listed as 17%. Besides, in data set [4] (in vivo), the “Adverse events leading to treatment discontinuation” value is listed as 3.2%, the “Treatment-emergent anti-therapeutic antibodies detected” value is on record as 41.5%, the “irAE: aspartate aminotransferase (AST) increased” value was 2% and the “irAE: pneumonitis” value was 2%. Also, in data set [4] (overall population), the “Median OS” value is 7.9 months, the “Median PFS” value is 2.1 months and the “Overall ORR by IRF” value is 14.8%. Further, the “ORR by IRF” value in data set [4] (subjects with <5% PD-L1 expression) is 9.5%. The “ORR by IRF” value in [4] (subjects with ? 5% PD-L1 expression) is listed as 26.0%. In addition, the “Median OS” value in data set [4] (setting [9]) is 11.9 months. For the same compound, in data set [5] (ITT population), the “Median OS” value is 13.8 months, the ORR is recorded as 14% and the OS hazard ratio is listed as 0.73. Moreover, the “Median OS” value in data set [5] (setting [10]) is 15.7 months. In data set [5] (PD-L1 positive population), the OS hazard ratio is listed as 0.74. Further, in [5] (in vivo), the “AE of any grade: asthenia” value was 8%, the “AE of any grade: decreased appetite” value is 9%, the “AE of any grade: fatigue” value is recorded as 14% and the “AE of any grade: nausea” value is 9%. In data set [5] (in vivo), the “Immune-related AE: colitis” value is given as “two”, the “Immune-related AE: hepatitis” value is “two”, the “Immune-related AE: pneumonitis” value is on record as “four” and the “Median DOR” value is reported as 16.3 months. Also, in [5] (in vivo), the “Subjects who discontinued treatment due to AE” value is 8% and the “Treatment-related Grade 3 or 4 AEs” value is on record as 15%. For the same compound, the “Median OS” value in the data set with cisplatin-ineligible UC (all subjects irrespective of PD-L1 expression level) was 15.9 months. For the same compound, the “Overall ORR by IRF” value in the data set on cisplatin-ineligible UC (all subjects) is reported as 23%. Besides, the “ORR by IRF” value in the data set on cisplatin-ineligible UC (subjects with <5% PD-L1) is listed as 21%. Further, the “ORR by IRF” value with cisplatin-ineligible UC (setting [9]) is on record as 28%.
As for `C[C@]12C=CC(=O)C=C1CC[C@@H]1[C@@H]2C(=O)C[C@@]2(C)[C@H]1CC[C@]2(O)C(=O)CO` [prednisone, reference compound], in data set [6] (at Week 12), the “Proportion of subjects with a bone scan response (BSR) per IRC” value is 3%. Besides, in data set [6] (exploratory endpoint), the “Median PFS per investigator” value is reported as 2.8 months. Further, in data set [6] (in vivo), the “Median duration of BSR” value is 1.8 months and the “Median duration of OS (Kaplan-Meier)” value is listed as 9.8 months.
As to `CCN(CC)CCNC(=O)c1c(C)[nH]c(/C=C2\C(=O)Nc3ccc(F)cc32)c1C` [sunitinib, reference compound], the “Discontinued study treatment due to an AE” value in data set [7] (16 subjects in each arm) was 21%. The “Adverse events of ≥Grade 3 regardless of causality” value in data set [7] (% of subjects) is given as 65%. Further, in [7] (in vivo), the “≥Grade 3 AE: PPE” value is listed as 4%, the “≥Grade 3 AE: diarrhea” value is 11%, the “≥Grade 3 AE: fatigue” value is reported as 17% and the “≥Grade 3 AE: hematological events” value is 21%. Further, in [7] (in vivo), the “≥Grade 3 AE: hypertension” value is reported as 21%.
For the compound `C#Cc1cccc(Nc2ncnc3cc(OCCOC)c(OCCOC)cc23)c1` [erlotinib, reference compound], the “Progression as best response” value in data set [8] (% of subjects) is recorded as 66%. Moreover, in [8] (in vivo), the “Estimated median OS” value is reported as 5.1 months and the ORR is listed as 3%. Moreover, the PFS in data set [8] (second or third line treatment) was 1.8 months.
Turning to `CC(=O)O[C@@]12CO[C@@H]1C[C@H](O)[C@@]1(C)C(=O)[C@H](O)C3=C(C)[C@@H](OC(=O)[C@H](O)[C@@H](NC(=O)OC(C)(C)C)c4ccccc4)C[C@@](O)([C@@H](OC(=O)c4ccccc4)[C@H]21)C3(C)C` [docetaxel], in [5] (ITT population), the “Median OS” value is recorded as 9.6 months and the ORR is listed as 13%. In addition, the “Median OS” value in data set [5] (setting [10]) is recorded as 10.3 months. In addition, the “Treatment-related Grade 3 or 4 AEs” value in data set [5] was 43%. In data set [5] (in vivo), the “Median DOR” value is 6.2 months and the “Subjects who discontinued treatment due to AE” value was 19%.
